Test results: ChEMBL document CHEMBL1909046, “DrugMatrix in vitro pharmacology data”

Key:
Cytochrome P450 2D6 = Cytochrome P450 2D6 (Homo sapiens, UniProt P10635); settings: bti-tn-5b1-4; further: in other assays of this panel Not Active means under 50% inhibition at 10 µM
[1] = DRUGMATRIX: Potassium Channel [KATP] radioligand binding (ligand: [3H] Glyburide); type: cell membranes, Membrane; settings: hit-t15; Not Active = under 50% inhibition at 10 µM
[2] = target: T1, Alpha-1A adrenergic receptor (Rattus norvegicus, UniProt P43140); experiment: DRUGMATRIX: Alpha-1A adrenergic receptor radioligand binding (ligand: prazosin); type: cell membranes, Wistar, Submaxillary gland, Membrane; settings: Not Active = under 50% inhibition at 10 µM
T1 sequence (P43140 whole entry): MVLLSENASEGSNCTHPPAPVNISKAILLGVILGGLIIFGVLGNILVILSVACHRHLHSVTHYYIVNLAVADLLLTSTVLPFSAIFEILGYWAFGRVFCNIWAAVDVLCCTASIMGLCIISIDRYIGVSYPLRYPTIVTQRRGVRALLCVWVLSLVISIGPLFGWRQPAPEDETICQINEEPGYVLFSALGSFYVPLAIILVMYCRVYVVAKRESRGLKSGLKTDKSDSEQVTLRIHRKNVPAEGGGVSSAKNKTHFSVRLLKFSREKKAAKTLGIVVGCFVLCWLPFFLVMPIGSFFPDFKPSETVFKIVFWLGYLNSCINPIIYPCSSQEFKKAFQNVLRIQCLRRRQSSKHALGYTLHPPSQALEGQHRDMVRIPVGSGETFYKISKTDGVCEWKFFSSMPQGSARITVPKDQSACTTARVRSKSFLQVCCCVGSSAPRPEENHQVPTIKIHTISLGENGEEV

[3] = target: Vascular endothelial growth factor receptor 1 (Homo sapiens, UniProt P17948); type: cell-based; settings: huvec; further: in other assays of this panel Not Active means under 50% inhibition at 10 µM
Sequence of Vascular endothelial growth factor receptor 1 (P17948 whole entry): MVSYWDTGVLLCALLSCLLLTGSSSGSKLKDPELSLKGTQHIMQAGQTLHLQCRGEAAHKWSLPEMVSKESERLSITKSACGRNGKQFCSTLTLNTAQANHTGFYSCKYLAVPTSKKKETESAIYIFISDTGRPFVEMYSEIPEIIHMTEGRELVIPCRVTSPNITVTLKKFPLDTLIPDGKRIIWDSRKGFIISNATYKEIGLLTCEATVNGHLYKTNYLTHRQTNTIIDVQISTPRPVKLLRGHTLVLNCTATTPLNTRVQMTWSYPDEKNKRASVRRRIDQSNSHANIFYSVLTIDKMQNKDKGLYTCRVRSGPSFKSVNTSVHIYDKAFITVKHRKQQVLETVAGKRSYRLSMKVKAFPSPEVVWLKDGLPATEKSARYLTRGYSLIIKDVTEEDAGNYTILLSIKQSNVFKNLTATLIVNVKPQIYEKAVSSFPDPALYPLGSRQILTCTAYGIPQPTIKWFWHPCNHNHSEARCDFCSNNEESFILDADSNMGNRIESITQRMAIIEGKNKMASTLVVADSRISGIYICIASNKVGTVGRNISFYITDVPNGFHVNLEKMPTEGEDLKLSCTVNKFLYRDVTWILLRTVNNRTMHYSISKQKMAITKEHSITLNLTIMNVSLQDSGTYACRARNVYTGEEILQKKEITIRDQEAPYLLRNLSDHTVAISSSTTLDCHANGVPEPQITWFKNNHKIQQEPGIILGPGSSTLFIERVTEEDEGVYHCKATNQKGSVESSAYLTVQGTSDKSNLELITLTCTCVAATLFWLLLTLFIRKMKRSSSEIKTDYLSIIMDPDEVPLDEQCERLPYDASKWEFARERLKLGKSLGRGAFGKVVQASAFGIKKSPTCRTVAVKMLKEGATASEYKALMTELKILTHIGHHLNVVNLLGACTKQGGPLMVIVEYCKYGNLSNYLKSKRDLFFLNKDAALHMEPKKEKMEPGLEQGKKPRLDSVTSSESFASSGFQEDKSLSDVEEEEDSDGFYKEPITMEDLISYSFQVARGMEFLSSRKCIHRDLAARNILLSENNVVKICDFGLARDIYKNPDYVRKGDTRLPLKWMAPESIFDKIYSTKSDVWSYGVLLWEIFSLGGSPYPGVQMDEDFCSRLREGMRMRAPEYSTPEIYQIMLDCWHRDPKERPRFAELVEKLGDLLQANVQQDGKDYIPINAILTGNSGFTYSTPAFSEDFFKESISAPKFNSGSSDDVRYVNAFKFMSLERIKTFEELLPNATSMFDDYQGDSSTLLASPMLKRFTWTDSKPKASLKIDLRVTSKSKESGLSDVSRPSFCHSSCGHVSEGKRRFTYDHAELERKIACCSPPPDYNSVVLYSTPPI

[4] = target: Sigma non-opioid intracellular receptor 1 (Homo sapiens, UniProt Q99720); experiment: DRUGMATRIX: Sigma1 radioligand binding (ligand: [3H] Haloperidol); type: cell membranes, Jurkat, Membrane; settings: jurkat; Not Active = under 50% inhibition at 10 µM
Sequence of Sigma non-opioid intracellular receptor 1 (Q99720 whole entry): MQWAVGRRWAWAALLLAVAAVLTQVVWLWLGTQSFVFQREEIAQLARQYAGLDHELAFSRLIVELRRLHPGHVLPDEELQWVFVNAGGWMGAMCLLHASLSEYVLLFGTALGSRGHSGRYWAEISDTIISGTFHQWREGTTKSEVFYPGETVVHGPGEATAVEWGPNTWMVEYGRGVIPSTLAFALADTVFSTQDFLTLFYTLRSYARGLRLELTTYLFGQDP

[5] = target: T2, Muscarinic acetylcholine receptor M4 (Homo sapiens, UniProt P08173); type: cell membranes, CHO-K1, Membrane; settings: cho-k1; further: in other assays of this panel Not Active means under 50% inhibition at 10 µM
T2 sequence (P08173 whole entry): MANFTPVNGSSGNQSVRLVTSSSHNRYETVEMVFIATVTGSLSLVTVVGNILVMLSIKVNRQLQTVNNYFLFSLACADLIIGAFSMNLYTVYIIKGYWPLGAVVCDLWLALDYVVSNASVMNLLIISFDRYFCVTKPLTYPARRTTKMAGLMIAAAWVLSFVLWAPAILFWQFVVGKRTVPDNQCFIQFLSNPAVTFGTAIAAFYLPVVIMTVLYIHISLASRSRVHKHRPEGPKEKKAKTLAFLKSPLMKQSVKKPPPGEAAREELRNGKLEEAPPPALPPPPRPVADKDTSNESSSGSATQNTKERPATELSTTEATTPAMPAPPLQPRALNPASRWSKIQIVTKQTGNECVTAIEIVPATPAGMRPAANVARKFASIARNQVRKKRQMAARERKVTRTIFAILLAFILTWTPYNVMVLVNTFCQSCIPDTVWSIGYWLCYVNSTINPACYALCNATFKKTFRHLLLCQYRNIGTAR

[6] = target: Delta-type opioid receptor (Homo sapiens, UniProt P41143); type: cell membranes, HEK293, Membrane; settings: hek293; further: in other assays of this panel Not Active means under 50% inhibition at 10 µM
Sequence of Delta-type opioid receptor (P41143 whole entry): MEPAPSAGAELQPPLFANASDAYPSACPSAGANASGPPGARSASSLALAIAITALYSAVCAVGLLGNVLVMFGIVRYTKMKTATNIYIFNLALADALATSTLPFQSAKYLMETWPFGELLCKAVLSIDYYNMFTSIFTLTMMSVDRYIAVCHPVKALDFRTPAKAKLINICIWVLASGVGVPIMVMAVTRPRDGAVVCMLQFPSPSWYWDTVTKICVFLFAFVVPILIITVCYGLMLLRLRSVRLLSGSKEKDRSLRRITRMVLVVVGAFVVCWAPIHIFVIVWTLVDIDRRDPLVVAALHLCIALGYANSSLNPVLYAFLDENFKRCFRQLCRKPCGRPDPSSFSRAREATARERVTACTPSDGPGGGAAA

Sequence of Cytochrome P450 2D6 (P10635 whole entry): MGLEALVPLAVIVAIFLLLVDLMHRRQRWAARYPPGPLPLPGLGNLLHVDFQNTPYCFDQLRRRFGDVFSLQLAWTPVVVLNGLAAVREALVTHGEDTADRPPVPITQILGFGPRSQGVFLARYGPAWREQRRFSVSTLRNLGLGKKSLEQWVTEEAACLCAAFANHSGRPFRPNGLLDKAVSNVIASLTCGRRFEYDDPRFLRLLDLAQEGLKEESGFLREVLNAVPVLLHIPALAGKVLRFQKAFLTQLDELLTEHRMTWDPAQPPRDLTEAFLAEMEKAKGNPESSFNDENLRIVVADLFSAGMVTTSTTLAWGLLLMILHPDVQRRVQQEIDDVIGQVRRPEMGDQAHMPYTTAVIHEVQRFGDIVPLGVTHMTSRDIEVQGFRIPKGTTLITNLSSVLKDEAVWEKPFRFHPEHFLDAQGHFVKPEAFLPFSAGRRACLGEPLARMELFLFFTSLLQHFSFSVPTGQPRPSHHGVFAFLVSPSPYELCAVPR

CCCCc1nc(Cl)c(CO)n1Cc1ccc(-c2ccccc2-c2nnn[nH]2)cc1 [LOSARTAN]
Not Active: IC50 (Cytochrome P450 2D6) | Ki (Cytochrome P450 2D6) | IC50 [1] | Ki [1] | IC50 [2] | IC50 [3] | IC50 [4] | IC50 [5] | IC50 [6]

Sc1ncnc2nc[nH]c12 [MERCAPTOPURINE ANHYDROUS]
Not Active: IC50 (Cytochrome P450 2D6) | Ki (Cytochrome P450 2D6) | IC50 [1] | Ki [1] | IC50 [2] | IC50 [3] | IC50 [4] | IC50 [5] | IC50 [6]

C[C@](N)(Cc1ccc(O)c(O)c1)C(=O)O [METHYLDOPA]
Not Active: IC50 (Cytochrome P450 2D6) | Ki (Cytochrome P450 2D6) | IC50 [1] | Ki [1] | IC50 [2] | IC50 [3] | IC50 [4] | IC50 [5] | IC50 [6]

C[C@]12CCC(=O)C=C1CC[C@@H]1[C@@H]2CC[C@@]2(C)[C@H]1CC[C@]2(C)O [METHYLTESTOSTERONE]
Not Active: IC50 (Cytochrome P450 2D6) | Ki (Cytochrome P450 2D6) | IC50 [1] | Ki [1] | IC50 [2] | IC50 [3] | IC50 [4] | IC50 [5] | IC50 [6]

Cc1ccccc1N1C(=O)c2cc(S(N)(=O)=O)c(Cl)cc2NC1C (stereo not drawn) [METOLAZONE]
Not Active: IC50 (Cytochrome P450 2D6) | Ki (Cytochrome P450 2D6) | IC50 [1] | Ki [1] | IC50 [2] | IC50 [3] | IC50 [4] | IC50 [5] | IC50 [6]

COCCc1ccc(OCC(O)CNC(C)C)cc1 (stereo not drawn) [METOPROLOL]
Not Active: IC50 (Cytochrome P450 2D6) | Ki (Cytochrome P450 2D6) | IC50 [1] | Ki [1] | IC50 [2] | IC50 [3] | IC50 [4] | IC50 [5] | IC50 [6]

CCn1cc(C(=O)O)c(=O)c2cc(F)c(N3CCNCC3)cc21 [NORFLOXACIN]
Not Active: IC50 (Cytochrome P450 2D6) | Ki (Cytochrome P450 2D6) | IC50 [1] | Ki [1] | IC50 [2] | IC50 [3] | IC50 [4] | IC50 [5] | IC50 [6]

NC1=NC(=O)C(c2ccccc2)O1 (stereo not drawn) [PEMOLINE]
Not Active: IC50 (Cytochrome P450 2D6) | Ki (Cytochrome P450 2D6) | IC50 [1] | Ki [1] | IC50 [2] | IC50 [3] | IC50 [4] | IC50 [5] | IC50 [6]

Nc1nc2c(ncn2CCC(CO)CO)c(=O)[nH]1 [PENCICLOVIR]
Not Active: IC50 (Cytochrome P450 2D6) | Ki (Cytochrome P450 2D6) | IC50 [1] | Ki [1] | IC50 [2] | IC50 [3] | IC50 [4] | IC50 [5] | IC50 [6]

C=C(C)C1(O)OC(=O)C=C1OC (stereo not drawn) [PENICILLIC ACID]
Not Active: IC50 (Cytochrome P450 2D6) | Ki (Cytochrome P450 2D6) | IC50 [1] | Ki [1] | IC50 [2] | IC50 [3] | IC50 [4] | IC50 [5] | IC50 [6]

CCOc1ccc(NC(C)=O)cc1 [PHENACETIN]
Not Active: IC50 (Cytochrome P450 2D6) | Ki (Cytochrome P450 2D6) | IC50 [1] | Ki [1] | IC50 [2] | IC50 [3] | IC50 [4] | IC50 [5] | IC50 [6]

CNNCc1ccc(C(=O)NC(C)C)cc1 [PROCARBAZINE]
Not Active: IC50 (Cytochrome P450 2D6) | Ki (Cytochrome P450 2D6) | IC50 [1] | Ki [1] | IC50 [2] | IC50 [3] | IC50 [4] | IC50 [5] | IC50 [6]
